{"source": "patent US20190358247A1", "about": "(The Medical College of Wisconsin, Inc., priority 2016, published 2019)", "key": {"MiaPaCa-2 cells [1]": {"system": "MiaPaCa-2 cells", "assay": "IncuCyte label-free cell confluence proliferation assay", "type": "cell-based, human", "settings": "PDAC / MiaPaCa-2, from two independent cell growth assays", "protocol": "Cell proliferation was measured using a label-free, non-invasive cellular confluence assay employing the IncuCyte™ Live-Cell Imaging Analyzer (Essen Bioscience). This system provides real-time cellular confluence data based on segmentation of high definition phase contrast images. […] MiaPaCa2 cells were treated with Met (1 and 2 mM) or Mito-Met-C10 (1-2 μM).\n(§1) IncuCyte Analyzer-real time measurement of cell proliferation. The cell proliferation was measured using a label-free, noninvasive cellular confluence assay by IncuCyte Live-Cell Imaging Systems (Essen Bioscience, Ann Arbor, Mich., USA; IncuCyte FLR). This system enables collection of live cell images at 2 h intervals over several days. The IncuCyte Analyzer provides real-time cellular confluence data based on segmentation of high-definition phase-contrast images. The cell proliferation is expressed as an increase in percentage of cell confluence."}, "MiaPaCa-2 cells [2]": {"system": "MiaPaCa-2 cells", "assay": "Clonogenic (colony formation) assay", "type": "cell-based, human", "protocol": "Clonogenic assay. […] The plates were kept within the incubator and media changed every 3-4 days until the control cells formed sufficiently large clones. The cell survival fractions were calculated as previously described.\nMiaPaCa-2 cells were treated with a range of concentrations as shown (FIG. 10C), and the number of colonies formed were counted."}, "MiaPaCa-2 cells [3]": {"system": "MiaPaCa-2 cells", "assay": "Oxygen consumption rate in intact cells, Seahorse XF96", "type": "cell-based, human", "settings": "for effect on OCR: immediate", "protocol": "Respiratory enzyme activity in intact and permeabilized cells. The mitochondrial function in intact and permeabilized pancreatic cancer cells was measured using a Seahorse XF96 Extracellular Flux Analyzer (Seahorse Bioscience, North Billerica, Mass., USA). Unless specified otherwise, assays in intact cells were performed as previously described. Measurement of mitochondrial respiratory complexes in permeabilized cells was performed according to the manufacturer's instructions (Seahorse Bioscience). Briefly, intact cells were permeabilized using 1 nM Plasma Membrane Permeabilizer (PMP, Seahorse Bioscience) immediately before oxygen consumption rate (OCR) measurement by XF96. The oxygen consumption derived from mitochondrial complex I or complex II activity was measured by providing different substrates to mitochondria, e.g., pyruvate/malate for complex I and succinate for complex II activity. Rotenone, malonate and antimycin A were used as specific inhibitors of mitochondrial complex I, II and III activities, respectively.\nEffects of Met and Mito-Met analogs on mitochondrial bioenergetics in MiaPaCa-2 cells. The oxygen consumption rate (OCR) and the extracellular acidification rate (ECAR) were measured as a readout of mitochondrial function and glycolysis using a Seahorse Bioscience XF96 extracellular flux analyzer. We compared the immediate OCR changes in response to different concentrations (e.g., IC50 or higher values determined by clonogenic assay) of Met, Mito-Met2, Mito-Met6, Mito-Met10, and phenformin (FIG. 13A).\nNext we monitored the mitochondrial OCR changes in MiaPaCa-2 cells after 24 h treatment with Met, Mito-Met analogs, and phenformin followed by a washout of the treatments and return to fresh cell culture media."}, "AMPK": {"system": "AMPK", "assay": "Immunoblot of phosphorylated AMPK Thr-172 relative to total AMPK, FC1199 cells", "type": "cell-based", "settings": "murine FC1199, 1 μM, 30 min", "protocol": "In this example, the inventors have shown that the mito-met compounds of the present invention cause an increased AMPK activation in cancer cells. In preliminary experiments (FIG. 4), human MiaPaCa2 and murine FC1199 PDAC cells treated 30 min with 1 μM mito-met (MM), 1 mM Met, or the oligomycin positive control were lysed, and proteins size-separated on SDS-PAGE, transferred to PVDF, and probed with an antibody to phosphorylated AMPK Thr-172.\nImmunoblotting. MiaPaCa-2 PDAC cells (1×10^6) were plated to 80% confluency in 60 mm dishes and then serum-starved for 5 hours. […] Cells were stimulated with oligomycin as a positive control. After stimulation, cells were washed twice in cold PBS and lysed using a modified RIPA buffer. Lysates were normalized for protein concentration, size separated using reducing SDS-PAGE, electro-transferred to PVDF membranes (Millipore) and then probed using primary and horseradish peroxidase-conjugated secondary antibodies. Antibodies against total or phosphorylated 5′ AMP-activated protein kinase (AMPK) were purchased from Cell Signaling Technology (Danvers, Mass.) and used at the manufacturer's recommended dilutions. Proteins were visualized by chemiluminescence with auto-exposure and quantified by densitometric analysis using the FluorChem HD2 from Cell Biosciences (Santa Clara, Calif.).\nAMPK activation in Mito-Met and Met-treated PDAC cells. […]"}, "MiaPaCa-2 cells [4]": {"system": "MiaPaCa-2 cells", "assay": "Radiosensitization, clonogenic survival after X-radiation", "type": "cell-based, human", "protocol": "MiaPaCa2 cells (1000 cells/well) were cultured in quadruplicate overnight in 96-well plates and changed to fresh medium.\n(§2) Radiation experiments. […] The cells were then treated with X-radiation at a dose of 0, 2, 4, and 6 Gy. The control cells were treated with the same concentration of vehicle (0.1% DMSO) where appropriate. After irradiation, cells were suspended and seeded at various densities (100-8,000 cells per well) in 6-well plates for clonogenic assay as described above. The plates were kept within the incubator and media changed every 3-4 days for 2 weeks. Wells with 10-50 sufficiently large clones were chosen for calculating the cell survival fractions.\n(§3) Effect of Mito-Met and Met on PDAC radiosensitivity. Both control cells and cells were pretreated for 24 h with 1 mM Met or Mito-Met (1 μM) prior to X-radiation. Cell survival was measured by a clonogenic assay."}, "MCF-10A cells": {"system": "MCF-10A cells", "assay": "Radiosensitization, clonogenic survival after X-radiation, normal cells", "type": "cell-based", "settings": "1 μM, 24 h pretreatment", "protocol": "as §2, §3"}, "FC1242-luc": {"system": "FC1242-luc", "assay": "Orthotopic syngeneic FC1242-luc engraftment model, tumor growth", "type": "in vivo, C57BL/6 mice", "settings": "for in vivo tumor growth compared with Met: 1 mg/kg daily i.p.", "description": "In vivo studies and bioluminescence imaging."}, "MCF-10A": {"system": "MCF-10A", "assay": "IncuCyte cell confluence assay, nonmalignant breast epithelial cells", "type": "cell-based", "protocol": "as §1"}}, "note": "Where “and” joins values, the source holds several entries; their conditions need not be identical. Identical values can stand only once.", "data": [{"smiles": "Br.N=C(N)NC(=N)NCCCCCCCCCC[P+](c1ccccc1)(c1ccccc1)c1ccccc1", "note": "[Mito-Met10]", "values": [{"measurement": "fold more effective than metformin in inhibiting cell proliferation", "setting": "MiaPaCa-2 cells [1]", "result": "~1,000 fold and > 1,000 fold"}, {"measurement": "fold more effective than metformin in inhibiting cell proliferation", "setting": "MiaPaCa-2 cells [1]; listed as mito-met-C10", "result": "~1,000 fold"}, {"measurement": "colony formation", "setting": "MiaPaCa-2 cells [2]; 3 μM, 24 h", "result": "Almost no colony formation"}, {"measurement": "IC50", "setting": "MiaPaCa-2 cells [2]; read-out: IC50, colony formation / survival fraction, MiaPaCa-2, 24 h treatment", "result": 1.1, "unit": "µM"}, {"measurement": "concentration at which OCR was inhibited", "setting": "MiaPaCa-2 cells [3]; 24 h treatment, washout", "result": 1, "unit": "µM"}, {"measurement": "effect on OCR", "setting": "MiaPaCa-2 cells [3]; 1 μM", "result": "did not inhibit OCR"}, {"measurement": "effect on OCR", "setting": "MiaPaCa-2 cells [3]; ≈10 μM", "result": "slight inhibition"}, {"measurement": "increase in active AMPK (phosphorylated relative to total protein)", "setting": "AMPK", "result": "1.5-2.5 fold"}, {"measurement": "radiosensitizing concentration, fold lower than Met", "setting": "MiaPaCa-2 cells [4]; 1 μM versus Met 1 mM", "result": "1,000 fold"}, {"measurement": "radiosensitization", "setting": "MiaPaCa-2 cells [4]; 24 h pretreatment (1 mM Met, 1 μM Mito-Met) before X-radiation", "result": "as effective as 1 mM Met"}, {"measurement": "radiosensitivity in normal cells", "setting": "MCF-10A cells", "result": "no radiosensitivity was observed"}, {"measurement": "in vivo tumor growth compared with Met", "setting": "FC1242-luc", "result": "considerably more potent than Met"}, {"measurement": "in vivo tumor growth compared with Met", "setting": "FC1242-luc; listed as Mito-Met", "result": "considerably more effective than Met"}, {"measurement": "therapeutic index relative to Met", "setting": "FC1242-luc; mouse, in vivo", "result": "~1,000 fold"}, {"measurement": "times more effective than Met in abrogating PDAC tumor growth", "setting": "FC1242-luc; mouse, in vivo", "result": "at least 100 times"}, {"measurement": "effect on cell confluence", "setting": "MCF-10A", "result": "not significantly affected"}]}]}
